Literature values as cited in patent US20120184504A1, “"The Use of a PAR-1 Antagonist in Combination with a P2Y12 ADP Receptor Antagonist for Inhibition of Thrombosis"” (priority 2009, published 2012).
Where two headings read alike, the source gives them in different places.

Assays:
[1] = test system: ischemic events and bleeding in patients; details: two phase 2 trials; cited from earlier work
[2] = test system: CFRs (coronary thrombus formation); details: pigs, cited from earlier work
[3] = test system: clinical events and bleeding in patients with acute coronary syndromes; details: cited from earlier work

Structure (SMILES): CCOC(=O)N[C@@H]1CC[C@@H]2[C@@H](C1)C[C@H]1C(=O)O[C@H](C)[C@H]1[C@H]2/C=C/c1ccc(-c2cccc(F)c2)cn1 [SCH 530348]
- bleeding [1]: without an accompanying increase in bleeding
- incidence of ischemic events [1]: strong trends towards reduced incidence of ischemic events

Structure (SMILES): CC(=O)Oc1ccccc1C(=O)O [aspirin]
- effect on CFRs ([2]; aspirin alone 7 mg/kg): reduced, but did not completely abolish

Structure (SMILES): COC(=O)[C@H](c1ccccc1Cl)N1CCc2sccc2C1 [clopidogrel]
- effect on CFRs ([2]; clopidogrel alone 5 mg/kg): reduced, but did not completely abolish

Structure (SMILES): CC(=O)Oc1cc2c(s1)CCN(C(C(=O)C1CC1)c1ccccc1F)C2 (stereo not drawn) [prasugrel]
- remaining prevalence of clinical events [3]: 10%
- incremental reduction in clinical events ([3]; prasugrel versus clopidogrel): 19%
